In brackets after ≈: the same amount, converted by molar mass. Activity calls are given as the source filed them. The rule behind the calls is not given here.
Key:
Staphylococcus aureus [1] = experiment: Synergistic antibacterial activity against TMP-resistant Staphylococcus aureus BHKS 227 assessed as fractional inhibitory concentration index incubated for 24 hrs in presence of SMX by CLSI based broth microdilution assay; assay type: functional
Staphylococcus aureus [2] = experiment: Synergistic antibacterial activity against TMP-resistant Staphylococcus aureus BHKS 231 assessed as fractional inhibitory concentration index incubated for 24 hrs in presence of SMX by CLSI based broth microdilution assay; assay type: functional
Dihydrofolate reductase = Dihydrofolate reductase (Staphylococcus aureus, UniProt P0A017); experiment: Inhibition of Staphylococcus aureus DHFR expressed in Escherichia coli BL21 (DE3) using DHF as substrate preincubated for 10 mins followed by substrate addition measured for 10 mins in presence of NADPH by spectrophotometry
Staphylococcus aureus [3] = experiment: Synergistic antibacterial activity against Staphylococcus aureus USA 300 assessed as fractional inhibitory concentration index incubated for 24 hrs in presence of SMX by CLSI based broth microdilution assay; assay type: functional
Staphylococcus aureus [4] = experiment: Antibacterial activity against methicillin-resistant Staphylococcus aureus ATCC 33591 infected in C57 mouse model assessed as wound healing at 2 to 10 mg/kg administered once a day for 3 days consecutively and measured after 24 hrs post-last dose; assay type: functional, organism-based; conditions: dose 2-10 mg/kg, time 4.0 day
Staphylococcus aureus [5] = experiment: Antibacterial activity against TMP-resistant Staphylococcus aureus BHKS 231 incubated for 24 hrs by CLSI based broth microdilution assay; assay type: functional
[6] = Cytotoxicity against human NCM460 cells assessed as inhibition rate of cell growth at 100 uM incubated for 24 hrs by CCK8 assay relative to control; assay type: toxicity, cell-based
Staphylococcus aureus [7] = experiment: Antibacterial activity against methicillin-resistant Staphylococcus aureus ATCC 33591 infected in C57 mouse model assessed as decrease in skin abscess at 2 to 10 mg/kg administered once a day for 3 days consecutively and measured after 24 hrs post-last dose; assay type: functional, organism-based; conditions: dose 2-10 mg/kg, time 4.0 day
[8] = target: Dihydrofolate reductase (Staphylococcus aureus) (UniProt P0A017); conditions: dose 10.0 µM, time 10.0 min
Staphylococcus aureus [9] = experiment: Antibacterial activity against Staphylococcus aureus ATCC 25923 incubated for 24 hrs by CLSI based broth microdilution assay; assay type: functional

Dihydrofolate reductase, sequence (P0A017 whole entry): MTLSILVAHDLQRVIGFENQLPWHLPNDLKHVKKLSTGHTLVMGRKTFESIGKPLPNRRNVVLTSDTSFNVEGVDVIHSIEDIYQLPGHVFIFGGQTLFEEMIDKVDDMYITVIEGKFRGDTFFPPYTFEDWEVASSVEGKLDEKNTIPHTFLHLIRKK
Dihydrofolate reductase (Staphylococcus aureus), sequence (P0A017 2-159 limits assumed): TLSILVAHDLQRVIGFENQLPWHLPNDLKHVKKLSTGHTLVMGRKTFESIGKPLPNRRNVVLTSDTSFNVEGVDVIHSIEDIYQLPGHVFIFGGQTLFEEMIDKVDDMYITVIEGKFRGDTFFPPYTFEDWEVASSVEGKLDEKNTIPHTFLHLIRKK

For `CC(C)c1cc(OCC2CC2)c(I)cc1Oc1cnc(N)nc1N`, the “fractional inhibitory concentration index (FICI)” value (Staphylococcus aureus [1]) was 0.27, the “fractional inhibitory concentration index (FICI)” value (Staphylococcus aureus [2]) was 1 and the IC50 (Dihydrofolate reductase) was 0.97 nM. For the same compound, the “fractional inhibitory concentration index (FICI)” value (Staphylococcus aureus [3]) was 0.022, the Activity (Staphylococcus aureus [4]) was “Active” and the MIC (Staphylococcus aureus [5]) was 32 µg/mL (≈ 72.7 µM). The inhibition at 24 h, 100 µM [6] was 20.2%, the Activity (Staphylococcus aureus [7]) was “Active” and the ΔTm [8] was 18 °C. For the same compound, the MIC (Staphylococcus aureus [9]) was 0.031 µg/mL (≈ 0.0704 µM).
